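Step 1: Grow cells in 96-well plates. Step 2: Expose to compound for 48 hours at 5 concentrations. Step 3: Interpolate endpoints linearly; if unreached, use highest concentration. Abbreviation: GI50, concentration required for 50% inhibition of growth.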 Calls of active or inactive are those of the source. No stated cut-off is given here; in the data, active = GI50 up to about 1.1 µM and inactive = higher.
Columns and labels:
Assay in all cases: growth of human tumour cells (NCI), 48 h
RXF 393 = tested on: RXF 393
SK-MEL-5 = tested on: SK-MEL-5
HL-60 = tested on: HL-60
SW-620 = tested on: SW-620
SNB-75 = tested on: SNB-75
Hs-578T = tested on: Hs-578T
CAKI-1 = tested on: CAKI-1
IGROV-1 = tested on: IGROV-1
SF-268 = tested on: SF-268
786-0 = tested on: 786-0
MCF7 = tested on: MCF7
TK-10 = tested on: TK-10
UACC-257 = tested on: UACC-257
UACC-62 = tested on: UACC-62
K562 = tested on: K562
SR = tested on: SR
ACHN = tested on: ACHN
NCI-H23 = tested on: NCI-H23
NCI-H226 = tested on: NCI-H226
SK-OV-3 = tested on: SK-OV-3
RPMI-8226 = tested on: RPMI-8226
MDA-MB-231 = tested on: MDA-MB-231
Malme-3M = tested on: Malme-3M
OVCAR-8 = tested on: OVCAR-8
CCRF-CEM = tested on: CCRF-CEM
OVCAR-5 = tested on: OVCAR-5
HT-29 = tested on: HT-29
BT-549 = tested on: BT-549
M14 = tested on: M14
HOP-62 = tested on: HOP-62
T47D = tested on: T47D
SN12C = tested on: SN12C
NCI-H522 = tested on: NCI-H522
HCT-15 = tested on: HCT-15
SF-295 = tested on: SF-295
LOX IMVI = tested on: LOX IMVI
NCI-H460 = tested on: NCI-H460
COLO 205 = tested on: COLO 205
PC-3 = tested on: PC-3
HCT-116 = tested on: HCT-116
HCC 2998 = tested on: HCC 2998
NCI/ADR-RES = tested on: NCI/ADR-RES
MDA-MB-435 = tested on: MDA-MB-435
HOP-92 = tested on: HOP-92
KM12 = tested on: KM12
MOLT-4 = tested on: MOLT-4
DU-145 = tested on: DU-145
SNB-19 = tested on: SNB-19
SK-MEL-2 = tested on: SK-MEL-2
OVCAR-3 = tested on: OVCAR-3
A549 = tested on: A549
EKVX = tested on: EKVX
SK-MEL-28 = tested on: SK-MEL-28
A498 = tested on: A498
OVCAR-4 = tested on: OVCAR-4
MDA-N = tested on: MDA-N
U-251 = tested on: U-251
UO-31 = tested on: UO-31
SF-539 = tested on: SF-539

## O=C(Nc1ccccc1)N(CCN(Cc1ccccc1)C(=O)Nc1ccccc1)CCN(Nc1ccccc1)C(=O)Nc1ccccc1
RXF 393
  GI50: > 100 µM (inactive)
SK-MEL-5
  GI50: > 100 µM (inactive)
HL-60
  GI50: > 100 µM (inactive)
SW-620
  GI50: > 100 µM (inactive)
SNB-75
  GI50: > 100 µM (inactive)
Hs-578T
  GI50: > 100 µM (inactive)
CAKI-1
  GI50: > 100 µM (inactive)
IGROV-1
  GI50: > 100 µM (inactive)
SF-268
  GI50: > 100 µM (inactive)
786-0
  GI50: > 100 µM (inactive)
MCF7
  GI50: > 100 µM (inactive)
TK-10
  GI50: > 100 µM (inactive)
UACC-257
  GI50: > 100 µM (inactive)
UACC-62
  GI50: > 100 µM (inactive)
K562
  GI50: > 100 µM (inactive)
SR
  GI50: > 100 µM (inactive)
ACHN
  GI50: > 100 µM (inactive)
NCI-H23
  GI50: > 100 µM (inactive)
NCI-H226
  GI50: > 100 µM (inactive)
SK-OV-3
  GI50: > 100 µM (inactive)
RPMI-8226
  GI50: > 100 µM (inactive)
MDA-MB-231
  GI50: > 100 µM (inactive)
Malme-3M
  GI50: > 100 µM (inactive)
OVCAR-8
  GI50: > 100 µM (inactive)
CCRF-CEM
  GI50: > 100 µM (inactive)
OVCAR-5
  GI50: > 100 µM (inactive)
HT-29
  GI50: > 100 µM (inactive)
BT-549
  GI50: > 100 µM (inactive)
M14
  GI50: 92.9 µM (inactive)
HOP-62
  GI50: > 100 µM (inactive)
T47D
  GI50: > 100 µM (inactive)
SN12C
  GI50: > 100 µM (inactive)
NCI-H522
  GI50: > 100 µM (inactive)
HCT-15
  GI50: > 100 µM
SF-295
  GI50: > 100 µM (inactive)
LOX IMVI
  GI50: > 100 µM (inactive)
NCI-H460
  GI50: > 100 µM (inactive)
COLO 205
  GI50: > 100 µM (inactive)
PC-3
  GI50: > 100 µM (inactive)
HCT-116
  GI50: > 100 µM (inactive)
HCC 2998
  GI50: > 100 µM (inactive)
NCI/ADR-RES
  GI50: > 100 µM (inactive)
MDA-MB-435
  GI50: > 100 µM (inactive)
HOP-92
  GI50: > 100 µM (inactive)
KM12
  GI50: > 100 µM (inactive)
MOLT-4
  GI50: > 100 µM (inactive)
DU-145
  GI50: > 100 µM (inactive)
SNB-19
  GI50: > 100 µM (inactive)
SK-MEL-2
  GI50: > 100 µM (inactive)
OVCAR-3
  GI50: > 100 µM (inactive)
A549
  GI50: > 100 µM (inactive)
EKVX
  GI50: > 100 µM (inactive)
SK-MEL-28
  GI50: > 100 µM (inactive)
A498
  GI50: > 100 µM (inactive)
OVCAR-4
  GI50: > 100 µM (inactive)
MDA-N
  GI50: > 100 µM (inactive)
U-251
  GI50: > 100 µM (inactive)
UO-31
  GI50: > 100 µM (inactive)

## Cc1nc2c(-c3ccccc3)[nH]c(C)c2c(=O)o1
RXF 393
  GI50: 35.9 µM (inactive)
SK-MEL-5
  GI50: 13.1 µM (inactive)
HL-60
  GI50: 15.7 µM (inactive)
SW-620
  GI50: > 100 µM (inactive)
SNB-75
  GI50: 23.9 µM (inactive)
Hs-578T
  GI50: > 100 µM (inactive)
CAKI-1
  GI50: 37.2 µM (inactive)
SF-539
  GI50: 56.5 µM (inactive)
IGROV-1
  GI50: 80.5 µM (inactive)
SF-268
  GI50: 15.5 µM (inactive)
786-0
  GI50: 61.8 µM (inactive)
MCF7
  GI50: 1.39 µM (inactive)
TK-10
  GI50: > 100 µM (inactive)
UACC-257
  GI50: > 100 µM (inactive)
UACC-62
  GI50: 23.9 µM (inactive)
K562
  GI50: 40.1 µM (inactive)
SR
  GI50: > 100 µM (inactive)
ACHN
  GI50: 43.8 µM (inactive)
NCI-H23
  GI50: 57.7 µM (inactive)
NCI-H226
  GI50: 87.5 µM (inactive)
SK-OV-3
  GI50: 49.9 µM (inactive)
RPMI-8226
  GI50: 32.7 µM (inactive)
MDA-MB-231
  GI50: 31.2 µM (inactive)
OVCAR-8
  GI50: 41.5 µM (inactive)
CCRF-CEM
  GI50: > 100 µM (inactive)
OVCAR-5
  GI50: > 100 µM (inactive)
HT-29
  GI50: 39.4 µM (inactive)
BT-549
  GI50: 24.8 µM (inactive)
M14
  GI50: 53.1 µM (inactive)
HOP-62
  GI50: 33.3 µM (inactive)
T47D
  GI50: 44.2 µM (inactive)
SN12C
  GI50: > 100 µM (inactive)
NCI-H522
  GI50: 19.7 µM (inactive)
HCT-15
  GI50: 30.8 µM
SF-295
  GI50: 79.6 µM (inactive)
LOX IMVI
  GI50: 42.5 µM (inactive)
NCI-H460
  GI50: > 100 µM (inactive)
COLO 205
  GI50: 58.3 µM (inactive)
PC-3
  GI50: > 100 µM (inactive)
HCT-116
  GI50: 45.6 µM (inactive)
HCC 2998
  GI50: 57.5 µM (inactive)
NCI/ADR-RES
  GI50: > 100 µM (inactive)
MDA-MB-435
  GI50: 46.2 µM (inactive)
HOP-92
  GI50: > 100 µM (inactive)
KM12
  GI50: > 100 µM (inactive)
MOLT-4
  GI50: 52.5 µM (inactive)
DU-145
  GI50: 76.2 µM (inactive)
SNB-19
  GI50: > 100 µM (inactive)
SK-MEL-2
  GI50: 46.7 µM (inactive)
A549
  GI50: 65.2 µM (inactive)
EKVX
  GI50: > 100 µM (inactive)
SK-MEL-28
  GI50: > 100 µM (inactive)
A498
  GI50: 22.1 µM (inactive)
OVCAR-4
  GI50: 70.1 µM (inactive)
MDA-N
  GI50: 45.6 µM (inactive)
U-251
  GI50: 34.9 µM (inactive)
UO-31
  GI50: 4.94 µM (inactive)

Source: ChEMBL document CHEMBL1201862, “PubChem BioAssay data set” (2004)
